Values of other authors as cited in publication PMC9325861, “Mouse precision-cut liver slices as an ex vivo model to study drug-induced cholestasis” (Archives of Toxicology, 2022).
Counter-ions that a name gives are not always drawn.

Key:
human PCLS = tested on: human PCLS; set-up: method as in Vatakuti et al. [2017]; details: 30 µM CPZ, without BA mixture, ref Vatakuti et al. [2017]; cited from earlier work
[1] = tested on: primary human hepatocytes; set-up: method as in Ogimura et al. [2017]; details: in the presence of a BA mixture, ref Ogimura et al. [2017], read-out: Concentration with 50% toxicity; cited from earlier work
MRP2 = tested on: MRP2; set-up: method as in Pedersen et al. [2008]; Morgan et al. [2013]; details: ref Pedersen et al. [2008]; Morgan et al. [2013]; cited from earlier work

Compound	Decrease in ATP content (human PCLS) [%]	IC50 [1] [µM]	Effect on MRP2 activity on a protein level (MRP2)
CN(C)CCCN1c2ccccc2Sc2ccc(Cl)cc21 [CPZ, Chlorpromazine hydrochloride]	40		
COc1ccc(Cl)cc1C(=O)NCCc1ccc(S(=O)(=O)NC(=O)NC2CCCCC2)cc1 [GB, Glibenclamide]		103	stimulate MRP2 activity
